Data reported in patent publication US20190313644A1, “METHOD FOR FRUIT THINNING” (Adama Agan Ltd., priority 2015, published 2019).

Assays:
[1] = test system: Golden Delicious variety of apples; assay: Fruit thinning field trial, first and optional second application of metamitron; format: in vivo; conditions: for Thinning Effect (%): vs untreated control
Description: A formulation of metamitron in the form of a soluble granule was diluted to the desired concentration with water. The following concentrations were prepared: • 1.1 Kg/ha metamitron (low dosage) • 1.65 Kg/ha metamitron (medium dosage) • 2.2 Kg/ha metamitron (high dosage) The experiments were conducted on the Golden Delicious variety of apples in Germany and Italy. The first application of metamitron was applied to the fruit trees in May when the fruit was at fruiting stage BBCH69-BBCH72. The second application of metamitron was applied, if applicable, five days after the first application. Local meteorological data was obtained from local weather stations. The meteorological data was inputted into the MaluSim Carbon Balance Model of Lakso (described at […].cornell.edu/apple_thin_help.html, the contents of which are hereby incorporated by reference) in order to obtain the level of carbohydrates available in the fruit tree. The thinning effect is calculated by comparing the treated fruit trees with the untreated control as follows: […]

[2] = test system: Golden Delicious variety of apples; assay: Photosynthetic activity levels of the fruit bearing tree after the first application; format: in vivo
Description: The experiments were conducted on the Golden Delicious variety of apples in Germany and Italy. The first application of metamitron was applied to the fruit trees in May when the fruit was at fruiting stage BBCH69-BBCH72. The second application of metamitron was applied, if applicable, five days after the first application. […] Based on this and on the predicted meteorological data for the time of the second application, the second application should be applied at a high dose in order to effectively thin the fruit bearing tree. […] No over-thinning was observed.

[3] = Germany, 1st application 1.65 Kg/ha, 2nd application 0 Kg/ha
[4] = Germany, 1st application 1.65 Kg/ha, 2nd application 1.1 Kg/ha
[5] = Germany, 1st application 1.65 Kg/ha, 2nd application 2.2 Kg/ha
[6] = Germany, 1st application 2.2 Kg/ha, 2nd application 0 Kg/ha
[7] = Germany, 1st application 2.2 Kg/ha, 2nd application 1.1 Kg/ha
[8] = Germany, 1st application 2.2 Kg/ha, 2nd application 1.65 Kg/ha
[9] = Germany, 1st application 2.2 Kg/ha, 2nd application 2.2 Kg/ha
[10] = Italy, 1st application 1.65 Kg/ha, 2nd application 0 Kg/ha
[11] = Italy, 1st application 1.65 Kg/ha, 2nd application 1.1 Kg/ha
[12] = Italy, 1st application 1.65 Kg/ha, 2nd application 2.2 Kg/ha
[13] = Italy, 1st application 2.2 Kg/ha, 2nd application 0 Kg/ha
[14] = Italy, 1st application 2.2 Kg/ha, 2nd application 2.2 Kg/ha

`Cc1nnc(-c2ccccc2)c(=O)n1N` [metamitron] was tested, and the “Fruit Load (fruits/tcsa)” value [1, 3] was 11.20 fruits/tcsa, the “Thinning Effect (%)” value [1, 3] was 33.2% and the “Fruit Load (fruits/tcsa)” value [1, 4] was 11.42 fruits/tcsa. The “Thinning Effect (%)” value [1, 4] was 31.8%, the “Fruit Load (fruits/tcsa)” value [1, 5] was 6.83 fruits/tcsa and the “Thinning Effect (%)” value [1, 5] was 59.3%. The “Fruit Load (fruits/tcsa)” value [1, 6] was 11.44 fruits/tcsa, the “Thinning Effect (%)” value [1, 6] was 31.8% and the “Fruit Load (fruits/tcsa)” value [1, 7] was 11.40 fruits/tcsa. The “Thinning Effect (%)” value [1, 7] was 32.0%, the “Fruit Load (fruits/tcsa)” value [1, 8] was 11.98 fruits/tcsa and the “Thinning Effect (%)” value [1, 8] was 28.5%. The “Fruit Load (fruits/tcsa)” value [1, 9] was 8.07 fruits/tcsa, the “Thinning Effect (%)” value [1, 9] was 51.8% and the “Fruit Load (fruits/tcsa)” value [1, 10] was 12.33 fruits/tcsa. For the same molecule, the “Thinning Effect (%)” value [1, 10] was 31.27%, the “Fruit Load (fruits/tcsa)” value [1, 11] was 12.30 fruits/tcsa and the “Thinning Effect (%)” value [1, 11] was 31.39%. The “Fruit Load (fruits/tcsa)” value [1, 12] was 9.58 fruits/tcsa, the “Thinning Effect (%)” value [1, 12] was 46.57% and the “Fruit Load (fruits/tcsa)” value [1, 13] was 12.67 fruits/tcsa. The “Thinning Effect (%)” value [1, 13] was 29.38%, the “Fruit Load (fruits/tcsa)” value [1, 14] was 9.37 fruits/tcsa and the “Thinning Effect (%)” value [1, 14] was 47.75%. For the same molecule, the “Photosynthetic Activity levels” value ([2]; Germany, after 1st application 1.65 Kg/ha) was “Low”, the “Photosynthetic Activity levels” value ([2]; Germany, after 1st application 2.2 Kg/ha) was “Low” and the “Photosynthetic Activity levels” value ([2]; Italy, after 1st application 1.65 Kg/ha) was “Low”. The “Photosynthetic Activity levels” value ([2]; Italy, after 1st application 2.2 Kg/ha) was “Low”.
